Measurements reported in US10821079B2, “PKC activators and combinations thereof” (Cognitive Research Enterprises, Inc., priority 2011, dated 2020).
“Also recorded” adds a separate entry of the source.

Experiments:
[1] = system: phosphatidylserine (C2) binding site; assay: 3H-DCPLA-ME binding to rat brain slices with competitors, film autoradiography
Description: To determine the binding site of DCPLA-ME, ^3H-DCPLA-ME was incubated with rat brain slices in the absence and presence of known C1 and C2 competitors. More specifically, rat brain sections were fixed with formaldehyde, sliced, and incubated with (1) ^3H-DCPLA-ME alone; (2) ^3H-DCPLA-ME with DCPLA; (3) ^3H-DCPLA-ME with Phorbol ester; or (4) ^3H-DCPLA-ME and Bryostatin 1. After incubation, the slices were washed with a buffer made of 130 mM NaCl, 5 mM MgCl, 5 mM KCl, 1 mM EGTA, and 0.1% bovine serum albumin in 10 mM HEPES-NaOH, pH 7.4, dried, and analyzed with film-autoradiography.

[2] = system: PKC-ε; assay: PKC-ε translocation to membrane in SH-SY5Y cells (Western blot); type: cell-based, human
Description: Cells were harvested in homogenizing buffer containing 10 mM Tris-Cl (pH 7.4), 1 mM PMSF (phenylmethylsulfonyl fluoride), 1 mM EGTA, 1 mM EDTA, 50 mM NaF, and 20 μM leupeptin and were lysed by sonication. The homogenate was centrifuged at 100,000×g for 15 min at 4° C. to obtain the cytosolic fraction (supernatant) and membrane (pellet). The pellet was resuspended in the homogenizing buffer by sonication. Protein concentration was measured using the Coomassie Plus (Bradford) Protein Assay kit (Pierce, USA). Following quantification, 20 μg of protein from each sample was subjected to SDS-PAGE analysis in 4-20% gradient Tris-Glycine gel (Invitrogen, USA). The separated protein was then transferred to nitrocellulose membrane. The membrane was blocked with BSA at room temperature for 15 min and was incubated with primary antibody over night at 4° C. After the incubation, it was washed three times with TBS-T (Tris Buffered saline-Tween 20) and further incubated with alkaline phosphatase conjugated secondary antibody (Jackson Immunoresearch Laboratories, USA) at 1:10,000 dilution for 45 min. The membrane was finally washed three times with TBS-T and developed using the 1-step NBT-BCIP substrate (Pierce, USA). Western Blot was imaged in the ImageQuant RT-ECL (GE Life Sciences, Piscataway, N.J.) and densitometric quantification was performed using the IMAL software (Blanchette Rockefeller Neurosciences Institute, Morgantown, W. Va.). For translocation assays, PKC activation was represented as the percentage of total protein in the membrane (membrane/cytosol+membrane).
Equal amounts of proteins were loaded in each lane (20 μg) for both the cytosol and membrane fractions. Activation of PKC was calculated as the percentage of total PKC in the membrane (membrane/cytosol+membrane).

[3] = system: PKC-ε; assay: PKC-ε mRNA by RT-PCR in RA / Bryostatin-1 treated cells; type: cell-based, human
Description: (§1) RNA was isolated from the cells using Trizol reagent (Invitrogen, USA) following the manufacturer's protocol. Briefly, 5 μg of total RNA was reverse transcribed using oligo (dT) and Superscript III (Invitrogen, USA) at 50° C. for 1 hr. Two μl of the cDNA product was amplified using primers for PKC-ε (Forward Primer—[…], Reverse primer—[…]), and β-tubulin (Forward Primer—[…], Reverse primer—[…]) (Origene, Rockville, Md.) for 25 cycles following standard PCR protocols and 55° C. annealing temperature. The PCR amplicons were analyzed in an E-Gel (Invitrogen, USA). The gel image was documented using a Fuji Image gel scanner (FLA-9000, Fuji Film) and densitometric quantification was performed using the IMAL software (Blanchette Rockefeller Neurosciences Institute, Morgantown, W. Va.). Data were represented as normalized ratio of PKC-ε OD (Optical Density) against β-tubulin OD for three independent experiments.

[4] = system: PKC-ε; assay: PKC-ε mRNA by RT-PCR in primary rat hippocampal neurons; type: cell-based; conditions: controls and ASPD-treated cells
Description: as §1
Primary neurons were treated with ASPD and/or DCPLA-ME. PKC-ε mRNA was quantified by RT-PCR as described above. RNA prepared from control and treated cultured primary rat hippocampal neurons were isolated and reverse transcribed. Individual cDNA was amplified for PKC-ε and β-actin. PKC-ε expression was normalized to β-actin.

[5] = target: PKC-δ (Homo sapiens, UniProt Q05655); assay: Activation of purified PKC isozymes, radiometric: PKC-δ; type: biochemical
Chain of PKC-δ (Q05655 whole entry): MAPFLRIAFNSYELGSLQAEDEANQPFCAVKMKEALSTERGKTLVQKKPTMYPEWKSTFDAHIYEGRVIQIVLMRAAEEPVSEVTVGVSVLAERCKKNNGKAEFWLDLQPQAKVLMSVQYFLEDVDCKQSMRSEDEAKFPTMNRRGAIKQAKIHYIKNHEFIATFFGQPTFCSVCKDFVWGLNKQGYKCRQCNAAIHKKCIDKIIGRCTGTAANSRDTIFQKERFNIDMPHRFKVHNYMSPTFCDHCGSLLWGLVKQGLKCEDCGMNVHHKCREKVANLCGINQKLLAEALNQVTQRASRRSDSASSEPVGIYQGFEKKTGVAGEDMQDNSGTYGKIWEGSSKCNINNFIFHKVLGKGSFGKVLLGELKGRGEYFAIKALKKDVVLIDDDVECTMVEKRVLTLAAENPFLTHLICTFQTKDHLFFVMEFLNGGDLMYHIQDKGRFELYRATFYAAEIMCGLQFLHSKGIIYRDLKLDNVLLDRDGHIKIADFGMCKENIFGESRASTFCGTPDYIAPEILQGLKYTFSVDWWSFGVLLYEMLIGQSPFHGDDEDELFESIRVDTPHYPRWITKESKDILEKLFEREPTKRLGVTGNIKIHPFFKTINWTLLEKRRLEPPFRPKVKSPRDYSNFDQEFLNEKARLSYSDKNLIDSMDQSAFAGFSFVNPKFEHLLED
Description: To measure PKC activity, 10 μg of protein from either cytosol or membrane was incubated for 15 min at 37° C. in the presence of 10 μM histones, 4.89 mM CaCl2, 1.2 μg/μl phosphatidyl-L-serine, 0.18 μg/μl 1,2-dioctanoyl-sn-glycerol, 10 mM MgCl2, 20 mM HEPES (pH 7.4), 0.8 mM EDTA, 4 mM EGTA, 4% glycerol, 8 μg/ml aprotinin, 8 μg/ml leupeptin, 2 mM benzamidine, and 0.5 μCi of [γ-^32P]ATP. [^32P]Phosphoprotein formation was measured by adsorption onto phosphocellulose as described previously. See Nelson et al. (2009) J Biol Chem 284, 34514-34521. For measurements of activation by RA, PKC activity was measured in the absence of diacylglycerol (DAG) and phosphatidylserine, as described by Nelson et al. (2009) J Biol Chem 284, 34514-34521. PKC-δ and PKC-ε were measured in the absence of added EGTA and CaCl^2, as described by Kanno et al. (2006) J Lipid Res 47, 1146-1156. The enzyme was provided as a purified isozyme for in vitro experiments.
To measure PKC, 10 μl of cell homogenate or purified PKC isoform was incubated for 15 min at 37° C. in the presence of 10 μM histones, 4.89 mM CaCl2, 1.2 μg/μl phosphatidyl-L-serine, 0.18 μg/μl 1,2-dioctanoyl-sn-glycerol, 10 mM MgCl2, 20 mM HEPES (pH 7.4), 0.8 mM EDTA, 4 mM EGTA, 4% glycerol, 8 μg/ml aprotinin, 8 μg/ml leupeptin, and 2 mM benzamidine. [γ32P]ATP (0.5 μCi) was added and 32P-phosphoprotein formation was measured by adsorption onto phosphocellulose as described previously. See Nelson et al., J. Neurochemistry, 1995, 65: 2350-2357.
PKC activity of each compound was measured in the absence of diacylglycerol and phosphatidylserine and PKC-δ and PKC-ε were measured in the absence of added EGTA and CaCl2, as described by Kanno et al., J. Lipid Res., 2006, 47: 1146-1156. Low concentrations of Ca^2+ were needed because high Ca^2+ can interact with the PKC phosphatidylserine binding site and prevents activation. […] To determine their PKC isoform specificity, the compounds were pre-incubated with purified isoforms of PKC for five minutes and the PKC activity was measured radiometrically.

Row | Structure (SMILES) | 3H-DCPLA-ME binding, 30 nM competitor [1] | 3H-DCPLA-ME binding, 1 μM competitor [1] | PKC-ε translocation over time (in words) ([2]; 0.27 nM, 0-60 min) | increase of mRNA level of PKC-ε [3] | PKC-ε transcript levels (in words) [4] | PKC-ε translocation (in words) ([2]; Aβ1-42 monomers 1 μM, DCPLA-ME added to ASPD-treated cells) | effect on PKC-δ (in words) [5]
1 | CCC/C=C/C=C/C(=O)O[C@H]1/C(=C/C(=O)OC)C[C@H]2C[C@H]([C@@H](C)O)OC(=O)C[C@H](O)C[C@@H]3C[C@H](OC(C)=O)C(C)(C)C(O)(C[C@@H]4C/C(=C/C(=O)OC)C[C@H](/C=C/C(C)(C)[C@]1(O)O2)O4)O3 [Bryostatin-1] | 100% | 77% | remained activated at 60 min | 2 fold | – | – | –
2 | CCCCCC1CC1CC1CC1CCCCCCCC(=O)OC (centres unmarked) [DCPLA-ME, methyl 8-(2-((2-pentylcyclopropyl)methyl)cyclopropyl)octanoate] | 64% | 37% | – | – | increased PKC-ε transcript levels | restored PKC-ε translocation to normal | did not have a major effect; also recorded: less inhibitory effect on PKC-δ than DHA-CP6 and DCPLA
3 | CC1=C(/C=C/C(C)=C/C=C/C(C)=C/C(=O)O)C(C)(C)CCC1 [RA, All-trans retinoic acid] | – | – | – | 2 fold | – | – | not activated
